The target of assay [1] is T1, HiBit-BRM fusion protein (Homo sapiens, UniProt P51531).
T1 construct: expressed in transfected cells
The assay can be described thus: HiBiT-BRM cell-based degradation assay (Nano-Glo HiBiT Lytic Detection, 24 h). Conditions: HeLa cells expressing HiBiT-BRM; for DC50: read-out: BRM HiBit Degradation IC50; for BRM HiBit Degradation Maximum measured: top dose 30 μM. As for the experimental part:
Procedure: A stable HeLa cell line expressing HiBiT-BRM was generated. On day 0, 5000 cells were seeded in 40 μL of media into each well of 384-well cell culture plates. On day 1, cells were treated with 120 nL DMSO or 120 nL of 3-fold serially DMSO-diluted compounds (10 points in duplicate with 30 μM as final top dose). Subsequently plates were incubated for 24 h in a standard tissue culture incubator and equilibrated at room temperature for 15 minutes. Nano-Glo HiBiT Lytic Detection System (Promega N3050) reagent was freshly prepared and 20 ul was added to each well. Upon addition of this LgBit-containing reagent, the HiBiT and LgBiT proteins associate to form the luminescent NanoBiT luciferase. The plates were shaken for 10 minutes at room temperature and the bioluminescence read using an EnVision plate reader (PerkinElmer).
(§1) The degradation % was calculated using the following formula: % degradation=100%−100%×(LumSample−LumLC)/(LumHC−LumLC). DMSO treated cells are employed as High Control (HC) and 2 μM of a known BRM/BRG1 degrader standard treated cells are employed as Low Control (LC).

The target of assay [2] is T2, HiBit-BRG1 fusion protein (Homo sapiens, UniProt P51532).
T2 construct: expressed in transfected cells
T2 sequence (P51532 whole entry, the tested form may be a part): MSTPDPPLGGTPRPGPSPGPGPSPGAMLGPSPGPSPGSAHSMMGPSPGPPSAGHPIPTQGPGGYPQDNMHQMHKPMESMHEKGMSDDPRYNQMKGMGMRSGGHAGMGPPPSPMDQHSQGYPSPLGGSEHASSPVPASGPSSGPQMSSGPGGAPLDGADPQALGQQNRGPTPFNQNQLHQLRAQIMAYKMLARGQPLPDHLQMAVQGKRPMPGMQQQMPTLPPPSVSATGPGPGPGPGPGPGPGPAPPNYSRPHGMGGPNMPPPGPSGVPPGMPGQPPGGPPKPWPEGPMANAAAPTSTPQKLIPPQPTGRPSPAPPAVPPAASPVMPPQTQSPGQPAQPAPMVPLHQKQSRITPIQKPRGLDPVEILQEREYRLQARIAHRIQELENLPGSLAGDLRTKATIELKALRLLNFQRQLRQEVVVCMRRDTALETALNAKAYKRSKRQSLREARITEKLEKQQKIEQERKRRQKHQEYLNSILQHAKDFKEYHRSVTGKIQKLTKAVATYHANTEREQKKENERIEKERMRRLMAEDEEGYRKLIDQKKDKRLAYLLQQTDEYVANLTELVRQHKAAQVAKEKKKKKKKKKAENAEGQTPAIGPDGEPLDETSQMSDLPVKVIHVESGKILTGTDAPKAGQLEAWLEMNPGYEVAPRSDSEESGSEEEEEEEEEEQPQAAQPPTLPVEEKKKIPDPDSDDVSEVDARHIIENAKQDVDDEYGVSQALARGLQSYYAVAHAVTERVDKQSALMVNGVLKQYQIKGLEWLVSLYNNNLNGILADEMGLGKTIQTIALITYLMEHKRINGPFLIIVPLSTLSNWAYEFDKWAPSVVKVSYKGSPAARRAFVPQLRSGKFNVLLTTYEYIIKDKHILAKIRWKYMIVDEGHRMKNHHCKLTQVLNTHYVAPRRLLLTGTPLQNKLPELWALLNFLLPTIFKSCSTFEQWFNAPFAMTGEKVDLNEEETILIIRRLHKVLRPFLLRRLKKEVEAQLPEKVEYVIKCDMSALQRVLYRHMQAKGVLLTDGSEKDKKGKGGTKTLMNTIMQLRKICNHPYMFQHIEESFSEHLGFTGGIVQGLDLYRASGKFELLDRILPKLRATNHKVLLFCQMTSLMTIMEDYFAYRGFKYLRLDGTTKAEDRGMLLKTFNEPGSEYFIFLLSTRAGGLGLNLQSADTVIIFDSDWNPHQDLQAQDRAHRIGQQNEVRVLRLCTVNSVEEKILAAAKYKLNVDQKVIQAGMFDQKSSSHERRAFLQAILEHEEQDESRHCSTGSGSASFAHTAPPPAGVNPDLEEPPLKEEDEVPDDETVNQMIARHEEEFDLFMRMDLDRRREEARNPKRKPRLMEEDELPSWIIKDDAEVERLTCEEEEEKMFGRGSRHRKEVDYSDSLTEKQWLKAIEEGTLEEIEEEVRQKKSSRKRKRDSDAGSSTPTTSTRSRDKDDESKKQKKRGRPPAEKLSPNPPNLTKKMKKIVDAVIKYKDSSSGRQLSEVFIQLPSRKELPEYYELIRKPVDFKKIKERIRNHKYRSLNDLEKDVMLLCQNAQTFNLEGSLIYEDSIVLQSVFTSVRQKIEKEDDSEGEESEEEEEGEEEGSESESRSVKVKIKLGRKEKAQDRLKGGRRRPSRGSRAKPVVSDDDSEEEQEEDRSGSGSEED
The assay can be described thus: HiBiT-BRG1 cell-based degradation assay (Nano-Glo HiBiT Lytic Detection, 24 h). Conditions: HeLa cells expressing HiBit-BRG1 and LgBit; for DC50: read-out: BRG1 HiBit Degradation IC50; for Dmax: HeLa, top dose 30 μM, read-out: BRG1 HiBit Degradation Maximum measured. As for the experimental part: Procedure: A stable HeLa cell line expressing HiBiT-BRM was generated. On day 0, 5000 cells were seeded in 40 μL of media into each well of 384-well cell culture plates. […] Nano-Glo HiBiT Lytic Detection System (Promega N3050) reagent was freshly prepared and 20 ul was added to each well. Upon addition of this LgBit-containing reagent, the HiBiT and LgBiT proteins associate to form the luminescent NanoBiT luciferase. The plates were shaken for 10 minutes at room temperature and the bioluminescence read using an EnVision plate reader (PerkinElmer).
For measurement of BRG1 degradation, a stable HeLa cell line expressing HiBit-BRG1 and LgBit was generated. The same protocol as above was then followed.
as §1
For orientation: HiBiT is a short tag that completes a luciferase, so light tracks the accessible tagged protein.

T1 sequence (P51531 whole entry, the tested form may be a part): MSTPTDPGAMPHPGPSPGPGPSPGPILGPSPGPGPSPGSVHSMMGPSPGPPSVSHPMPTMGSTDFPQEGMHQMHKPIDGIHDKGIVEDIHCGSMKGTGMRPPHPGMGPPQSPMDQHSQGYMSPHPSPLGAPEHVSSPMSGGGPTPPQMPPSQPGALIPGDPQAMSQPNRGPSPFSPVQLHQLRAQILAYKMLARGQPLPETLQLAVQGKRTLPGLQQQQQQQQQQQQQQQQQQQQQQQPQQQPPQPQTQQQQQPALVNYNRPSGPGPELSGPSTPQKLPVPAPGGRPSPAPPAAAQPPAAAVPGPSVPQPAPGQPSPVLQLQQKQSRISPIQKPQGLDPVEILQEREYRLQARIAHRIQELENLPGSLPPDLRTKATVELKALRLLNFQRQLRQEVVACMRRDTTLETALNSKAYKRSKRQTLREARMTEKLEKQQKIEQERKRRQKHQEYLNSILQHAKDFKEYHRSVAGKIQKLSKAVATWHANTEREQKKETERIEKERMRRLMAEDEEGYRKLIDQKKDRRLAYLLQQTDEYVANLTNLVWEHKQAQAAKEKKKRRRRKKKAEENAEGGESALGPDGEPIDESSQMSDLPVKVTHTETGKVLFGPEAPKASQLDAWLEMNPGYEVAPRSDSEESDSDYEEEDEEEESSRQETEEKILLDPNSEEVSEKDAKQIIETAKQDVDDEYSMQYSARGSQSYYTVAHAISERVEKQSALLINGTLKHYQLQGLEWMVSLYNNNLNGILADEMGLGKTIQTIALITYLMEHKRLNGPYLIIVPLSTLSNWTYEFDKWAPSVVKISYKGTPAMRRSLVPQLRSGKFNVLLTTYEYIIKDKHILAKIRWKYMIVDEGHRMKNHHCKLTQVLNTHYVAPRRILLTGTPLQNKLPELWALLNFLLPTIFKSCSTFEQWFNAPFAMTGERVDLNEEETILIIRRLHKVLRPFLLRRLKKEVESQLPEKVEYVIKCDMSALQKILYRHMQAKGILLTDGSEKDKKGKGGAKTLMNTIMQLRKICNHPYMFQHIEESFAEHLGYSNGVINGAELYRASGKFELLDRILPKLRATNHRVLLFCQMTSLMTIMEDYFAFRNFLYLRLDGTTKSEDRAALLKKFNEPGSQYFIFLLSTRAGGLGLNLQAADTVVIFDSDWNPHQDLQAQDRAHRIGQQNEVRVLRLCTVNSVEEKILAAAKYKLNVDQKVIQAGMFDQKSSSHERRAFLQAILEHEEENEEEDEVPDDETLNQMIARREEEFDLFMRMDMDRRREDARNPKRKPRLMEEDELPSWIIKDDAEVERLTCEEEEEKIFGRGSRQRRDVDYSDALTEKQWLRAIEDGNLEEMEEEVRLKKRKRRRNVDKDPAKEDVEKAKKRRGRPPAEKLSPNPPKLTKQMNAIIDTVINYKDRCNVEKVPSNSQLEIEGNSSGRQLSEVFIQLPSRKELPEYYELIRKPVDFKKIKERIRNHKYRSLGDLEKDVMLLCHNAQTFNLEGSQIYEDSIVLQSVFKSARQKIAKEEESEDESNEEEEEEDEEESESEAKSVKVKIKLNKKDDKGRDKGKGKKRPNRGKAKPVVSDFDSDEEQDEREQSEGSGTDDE

With `CS(=O)(=O)n1ccc(C(=O)N[C@@H](COCc2ccc(CNC(=O)CCCCCCOc3cccc4c3C(=O)N(C3CCC(=O)NC3=O)C4=O)cc2)C(=O)Nc2nc(-c3ccccc3)cs2)c1` (stereo partly drawn) [Compound 179, 7-[[2-(2,6-dioxopiperidin-3-yl)-1,3-dioxoisoindol-4-yl]oxy]-N-[(4-[[(2S)-2-[(1-methanesulfonylpyrrol-3-yl)formamido]-2-[(4-phenyl-1,3-thiazol-2-yl)carbamoyl]ethoxy]methyl]phenyl)methyl]heptanamide], in assay [1], the DC50 is > 10 µM and the “BRM HiBit Degradation Maximum measured” value was “C (‘C’ = Maximum degradation <50%)”. Further, in assay [2], the DC50 was > 10 µM and the Dmax was < 50%.
As to `Cc1ncsc1-c1ccc(CNC(=O)[C@@H]2C[C@@H](O)CN2C(=O)[C@@H](NC(=O)CCCCCCC(=O)N(C)Cc2cc(-c3cccc(-c4csc(NC(=O)CNC(=O)c5ccn(S(C)(=O)=O)c5)n4)c3)ccn2)C(C)(C)C)cc1` [Compound 153, N-[(2S)-1-[(2S,4R)-4-hydroxy-2-([[4-(4-methyl-1,3-thiazol-5-yl)phenyl]methyl]carbamoyl)pyrrolidin-1-yl]-3,3-dimethyl-1-oxobutan-2-yl]-N′-([4-[3-(2-[2-[(1-methanesulfonylpyrrol-3-yl)formamido]acetamido]-1,3-thiazol-4-yl)phenyl]pyridin-2-yl]methyl)-N′-methyloctanediamide], in assay [1], the DC50 was 0.1 to 1 µM; the “BRM HiBit Degradation Maximum measured” value is “B (‘B’ = Maximum degradation ≥50% and ≤75%)”. Besides, in assay [2], the DC50 fell in the range of 0.1 to 1 µM and the Dmax is > 75%.
As for `CS(=O)(=O)n1ccc(C(=O)NCC(=O)Nc2nc(-c3cccc(-c4ccnc(OCCNC(=O)CCCCCCCCCCNc5cccc6c5C(=O)N(C5CCC(=O)NC5=O)C6=O)c4)c3)cs2)c1` (centres unmarked) [Compound 82, N-[2-[[4-[3-[2-[2-[11-[[2-(2,6-dioxo-3-piperidyl)-1,3-dioxo-isoindolin-4-yl]amino]undecanoylamino]ethoxy]-4-pyridyl]phenyl]thiazol-2-yl]amino]-2-oxo-ethyl]-1-methylsulfonylpyrrole-3-carboxamide], in assay [1], the DC50 is > 10 µM and the “BRM HiBit Degradation Maximum measured” value is given as “C (‘C’ = Maximum degradation <50%)”. In assay [2], the DC50 is > 10 µM and the Dmax was < 50%.
With `CN(CCNC(=O)CCCOCC[C@H](NC(=O)c1ccn(S(C)(=O)=O)c1)C(=O)Nc1nc(-c2ccccc2)cs1)CCNc1cccc2c1C(=O)N(C1CCC(=O)NC1=O)C2=O` (stereo partly drawn) [Compound 276, (2S)-4-[3-([2-[(2-[[2-(2,6-dioxopiperidin-3-yl)-1,3-dioxoisoindol-4-yl]amino]ethyl)(methyl)amino]ethyl]carbamoyl)propoxy]-2-[(1-methanesulfonylpyrrol-3-yl)formamido]-N-(4-phenyl-1,3-thiazol-2-yl)butanamide; formic acid], in assay [1], the DC50 is > 10 µM and the “BRM HiBit Degradation Maximum measured” value was “C (‘C’ = Maximum degradation <50%)”. Moreover, in assay [2], the DC50 was > 10 µM and the Dmax was < 50%.
As for `CS(=O)(=O)n1ccc(C(=O)N[C@@H](CCOCCCC(=O)N2CC(CN3CCN(c4ccc5c(c4)C(=O)N(C4CCC(=O)NC4=O)C5=O)CC3)C2)C(=O)Nc2nc(-c3ccccc3)cs2)c1` (stereo partly drawn) [Compound 221, (2S)-4-[4-[3-([4-[2-(2,6-dioxopiperidin-3-yl)-1,3-dioxoisoindol-5-yl]piperazin-1-yl]methyl)azetidin-1-yl]-4-oxobutoxy]-2-[(1-methanesulfonylpyrrol-3-yl)formamido]-N-(4-phenyl-1,3-thiazol-2-yl)butanamide], in assay [1], the DC50 is > 10 µM and the “BRM HiBit Degradation Maximum measured” value is given as “C (‘C’ = Maximum degradation <50%)”. Also, in assay [2], the DC50 is > 10 µM and the Dmax is < 50%.
For `CS(=O)(=O)n1ccc(C(=O)N[C@@H](COCc2ccc(CNC(=O)CCCCCCCCCCNc3cccc4c3C(=O)N(C3CCC(=O)NC3=O)C4=O)cc2)C(=O)Nc2nc(-c3ccccc3)cs2)c1` (stereo partly drawn) [Compound 180, 11-[[2-(2,6-dioxopiperidin-3-yl)-1,3-dioxoisoindol-4-yl]amino]-N-[(4-[[(2S)-2-[(1-methanesulfonylpyrrol-3-yl)formamido]-2-[(4-phenyl-1,3-thiazol-2-yl)carbamoyl]ethoxy]methyl]phenyl)methyl]undecanamide], in assay [1], the DC50 lay within 0.1 to 1 µM; the “BRM HiBit Degradation Maximum measured” value was “B (‘B’ = Maximum degradation ≥50% and ≤75%)”. Besides, in assay [2], the DC50 was 0.1 to 1 µM and the Dmax lay within 50 to 75%.
For `Cc1ncsc1-c1ccc(CNC(=O)[C@@H]2C[C@@H](O)CN2C(=O)[C@@H](NC(=O)CN2CC(C(=O)NCc3cccc(-c4cccc(-c5csc(NC(=O)CNC(=O)c6ccn(S(C)(=O)=O)c6)n5)c4)c3)C2)C(C)(C)C)cc1` [Compound 157, (2S,4R)-4-hydroxy-1-[(2S)-2-[2-[3-([[3-(2-[2-[(1-methan-esulfonyl-pyrrol-3-yl)formamido]acetamido]-1,3-thiazol-4-yl)-[1,1-biphenyl]-3-yl]methyl]carbamoyl)azetidin-1-yl]acetamido]-3,3-dimethylbutanoyl]-N-[[4-(4-methyl-1,3-thiazol-5-yl)phenyl]methyl]pyrr-oledine-2-carboxamide], in assay [1], the DC50 was > 10 µM and the “BRM HiBit Degradation Maximum measured” value is “C (‘C’ = Maximum degradation <50%)”. Further, in assay [2], the DC50 was > 10 µM and the Dmax is < 50%.
For the compound `CS(=O)(=O)n1ccc(C(=O)NCC(=O)Nc2nc(-c3cccc(-c4ccnc(C5(C(=O)NC6CCN(CCOc7ccc8c(c7)C(=O)N(C7CCC(=O)NC7=O)C8=O)CC6)CC5)c4)c3)cs2)c1` (centres unmarked) [Compound 113], in assay [1], the DC50 was < 0.1 µM and the “BRM HiBit Degradation Maximum measured” value was “A (‘A’ = Maximum degradation >75%)”. In addition, in assay [2], the DC50 was < 0.1 µM and the Dmax is > 75%.
As to `Cc1ncsc1-c1ccc(CNC(=O)[C@@H]2C[C@@H](O)CN2C(=O)[C@@H](NC(=O)N2CC(C(=O)NCc3cccc(-c4cccc(-c5csc(NC(=O)CNC(=O)c6ccn(S(C)(=O)=O)c6)n5)c4)c3)C2)C(C)(C)C)cc1` [Compound 160, N1-[(2S)-1-[(2S,4R)-4-hydroxy-2-([[4-(4-methyl-1,3-thiazol-5-yl)phenyl]methyl]carbamoyl)pyrrolidin-1-yl]-3,3-dimethyl-1-oxobutan-2-yl]-N3-[[3-(2-[2-[(1-methanesulfonylpyrrol-3-yl)formamido]acetamido]-1,3-thiazol-4-yl)-[1,1-biphenyl]-3-yl]methyl]azetidine-1,3-dicarboxamide], in assay [1], the DC50 is > 10 µM and the “BRM HiBit Degradation Maximum measured” value was “C (‘C’ = Maximum degradation <50%)”. In addition, in assay [2], the DC50 is > 10 µM and the Dmax is < 50%.
On to `CS(=O)(=O)n1ccc(C(=O)N[C@@H](CCOCCCC(=O)N2CC(CCOc3cccc4c3C(=O)N(C3CCC(=O)NC3=O)C4=O)C2)C(=O)Nc2nc(-c3ccccc3)cs2)c1` (stereo partly drawn) [Compound 224, (2S)-4-[4-[3-(2-[[2-(2,6-dioxopiperidin-3-yl)-1,3-dioxoisoindol-4-yl]oxy]ethyl)azetidin-1-yl]-4-oxobutoxy]-2-[(1-methanesulfonylpyrrol-3-yl)formamido]-N-(4-phenyl-1,3-thiazol-2-yl)butanamide], for which, in assay [1], the DC50 was > 10 µM and the “BRM HiBit Degradation Maximum measured” value was “C (‘C’ = Maximum degradation <50%)”. In addition, in assay [2], the DC50 is > 10 µM and the Dmax is < 50%.
With `Cc1ncsc1-c1ccc(CNC(=O)[C@@H]2C[C@@H](O)CN2C(=O)[C@@H](NC(=O)NCc2cccc(-c3cccc(-c4csc(NC(=O)CNC(=O)c5ccn(S(C)(=O)=O)c5)n4)c3)c2)C(C)(C)C)cc1` [Compound 158, (2S,4R)-4-hydroxy-1-[(2S)-2-[([[3-(2-[2-[(1-methanesulfonylpyrrol-3-yl)formamido]acetamido]-1,3-thiazol-4-yl)-[1,1-biphenyl]-3-yl]methyl]carbamoyl)amino]-3,3-dimethylbutanoyl]-N-[[4-(4-methyl-1,3-thiazol-5-yl)phenyl]methyl]pyrrolidine-2-carboxamide], in assay [1], the DC50 was > 10 µM and the “BRM HiBit Degradation Maximum measured” value is given as “C (‘C’ = Maximum degradation <50%)”. Besides, in assay [2], the DC50 is > 10 µM and the Dmax was < 50%.
